# Legend:
# [1] = system: MIA PaCa-2 tumor spheroids; test: 3D spheroid formation/growth assay; assay type: cell-based, human; set-up: Spheroid Diameter Day 0 / Spheroid Diameter Day 9: unit not given here; settings: for Spheroid Diameter Day 0: Day 0 (baseline); for Reduction of spheroid diameter: 9 days
# Procedure: (§1) For the preliminary assessment of anticancer activity in a 2D cell culture system, an MIA PaCa-2 human pancreas epithelial carcinoma (CRL-1420™) cell line (ATCC, Manassas, VA, USA) was cultured in Dulbecco’s Modified Eagle Medium with 10% fetal bovine serum (FBS, v/v) (Gibco, Billings, MT, USA) and supplemented with 1% antibiotics (10,000 μg/mL streptomycin and 10,000 U/mL penicillin) (Gibco, Billings, MT, USA) at 37 °C in a humidified 5% CO2 atmosphere. For the in vitro modeling of the tumor microenvironment, compounds were also tested in a 3D spheroid test system. For this purpose, the MIA PaCa-2 human pancreas epithelial carcinoma (CRL-1420™) cell line and human dermal fibroblast cell line HDF (PCS-201-012) cells were used.
# For 3D spheroid formation, the MIA PaCa-2 cells (PC cell line) and HDF cells were used according to the 3D Bioprinting method. To better simulate the tumor microenvironment, PC cells were mixed (1:1) with human fibroblasts. Briefly, the MIA PaCa-2 cells and human fibroblasts at 70–80% confluency were added to a 6-well plate and incubated with biocompatible NanoShuttle TM-PL (Bioprinting Kit, Greiner Bio-One, Germany) overnight at 37 °C in a humidified 5% CO2 atmosphere. After the nanoparticles were taken up by the cells, they were resuspended and seeded into an ultra-low attachment 96-well plate at a volume of 100 μL (2000 PC cells and 2000 human fibroblasts per well) volume. The plate was placed on a magnetic drive and incubated at 37 °C in a humidified 5% CO2 atmosphere until spheroids were formed. After two days of incubation, the spheroids were photographed using light microscopy (Carl Zeiss Primo Vert, Germany). Fresh medium containing 0.1, 1, 10, and 100 µM of tested compound was added to the wells. Photos were taken every 72 h, and the medium was replaced every 72 h. The effect of the tested compounds in 3D PC cell cultures was examined by measuring the size change of spheroids using ImageJ software (ImageJ 2.0 software, USA).
# MIA PaCa-2 cell line = test: 2D anticancer activity, MTT assay; assay type: cell-based; settings: Homo sapiens, 72 h exposure, read-out: IC50 in 2D cultured MIA PaCa-2 cell line
# Procedure: as §1
# For the assessment of anticancer activity of the compounds, the MIA PaCa-2 cells were plated in 48-well microplates at 1.5 × 10^5 cells/mL and incubated for 24 h at 37 °C in 5% CO2 in accordance with a previously reported method. Following the day, the cells were treated with compounds in various concentrations between 0.1–100 µM dissolved in dimethyl sulfoxide (DMSO) (Sigma Aldrich, St. Louis, MO, USA). Following the 72 h of incubation, culture mediums were discarded and 0.5 mg/mL 3-(4,5-Dimethylthiazol-2-yl)-2,5-Diphenyltetrazolium Bromide (MTT) (Sigma Aldrich, St. Louis, MO, USA) was added to each well for an additional 2 h at 37 °C. After 2 h incubation, the medium was discarded and 100 µL of isopropanol (Sigma Aldrich, St. Louis, MO, USA) was added to the wells to dissolve formazan crystals. The optical density was measured at 570 nm wavelength using a microplate reader (Thermo Fisher Scientific Multiskan, Finland). Doxorubicin hydrochloride (DOX) (European Pharmacopoeia standard, Sigma) was used as internal positive control, and 0.5% DMSO (v/v) was used as negative control. The percentage of cell viability was determined by using the following equation:(1) Viability %=(Absorbancecompound)/(Absorbancenegative control)×100%
# COX-1 = molecular target: T1, COX-1 (Ovis aries, UniProt P05979); test: Fluorometric COX-1 inhibitor screening kit
# T1 sequence (P05979 25-600): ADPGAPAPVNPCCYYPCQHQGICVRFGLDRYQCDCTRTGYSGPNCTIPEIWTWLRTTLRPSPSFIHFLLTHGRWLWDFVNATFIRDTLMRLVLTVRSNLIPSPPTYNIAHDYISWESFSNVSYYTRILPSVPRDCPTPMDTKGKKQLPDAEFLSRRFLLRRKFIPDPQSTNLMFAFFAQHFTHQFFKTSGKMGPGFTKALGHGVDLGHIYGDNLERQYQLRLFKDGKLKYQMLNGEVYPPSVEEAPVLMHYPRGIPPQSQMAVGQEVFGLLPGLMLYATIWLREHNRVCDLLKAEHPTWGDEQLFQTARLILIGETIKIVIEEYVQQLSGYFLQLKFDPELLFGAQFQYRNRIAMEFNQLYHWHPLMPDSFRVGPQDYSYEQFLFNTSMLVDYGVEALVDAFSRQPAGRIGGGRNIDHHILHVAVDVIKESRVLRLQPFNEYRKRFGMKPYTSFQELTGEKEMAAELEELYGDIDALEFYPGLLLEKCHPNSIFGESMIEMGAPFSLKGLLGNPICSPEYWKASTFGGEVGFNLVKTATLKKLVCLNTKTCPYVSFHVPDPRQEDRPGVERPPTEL
# Procedure: COX-1 and COX-2 inhibitory activities were tested using fluorometric COX-1 and COX-2 inhibitor screening kits (Abcam, United Kingdom), and the 5-LOX inhibitory activity was tested using a fluorometric 5-LOX inhibitor screening kit (MyBioSource, USA). These assays are based on the fluorometric detection of Prostaglandin G2 (a product generated by the COX enzyme) or on the fluorometric detection of the intermediate generated by the 5-LOX enzyme.
# For the determination of COX-1 and COX-2 inhibitory activity, the tested compounds were dissolved in dimethyl sulfoxide (DMSO, 5 mM stock solution) and then diluted with the same solvent to obtain the test solutions. The test solutions were further diluted 5× with COX Assay Buffer (2 µL of test solution: 8 µL COX Assay Buffer). […] Solvent Control (SC) was prepared by adding 2 µL DMSO and 8 µL COX Assay Buffer, while Sample (S) and Enzyme Control (EC) were prepared by adding 10 µL of diluted test solution and COX Assay Buffer, respectively, into assigned wells.
# EC, SC, IC, and all test solutions were analyzed in triplicate.
# HaCaT cell line = test: Cell viability (cytotoxicity) in healthy cells, MTT assay; assay type: cell-based, human; settings: for IC50: Homo sapiens, HaCaT, MTT, 72 h, healthy keratinocytes, read-out: IC50 in 2D cultured HaCaT cell line; for Selectivity, cancer vs healthy cell line: MIA PaCa-2 vs healthy cell line (HaCaT)
# Procedure: HaCaT human healthy keratinocyte cells (CRL-2404™) (ATCC, Manassas, VA, USA) were cultured in DMEM (10% FBS, v/v) (Gibco, Billings, MT, USA), respectively and supplemented with 1% antibiotics (10.000 μg/mL streptomycin and 10.000 units/mL penicillin) (Gibco, Billings, MT, USA) at 37 °C in a humidified atmosphere of 5% CO2. For the preliminary assessment of the cytotoxicity of selected potent compounds in healthy cells, HaCaT cells were seeded 2 × 10^5 cells/mL in 96-well plate and incubated for 24 h. The following day the 7a, 7d, and 7f compounds were applied similarly as in the MIA PaCa-2 cytotoxicity protocol between concentrations 0.62–100 µM for 72 h and then MTT was applied.
SMILES,IC50 (MIA PaCa-2 cell line),IC50 (COX-1),melting point,Spheroid Diameter Day 0 ([1]; 0.1 µM group),Spheroid Diameter Day 9 ([1]; 0.1 µM),Spheroid Diameter Day 0 ([1]; 1 µM group),Spheroid Diameter Day 9 ([1]; 1 µM),Spheroid state at the end of the 9 days ([1]; 10–100 µM),Spheroid Diameter Day 0 ([1]; 10 µM group),Spheroid Diameter Day 9 ([1]; 10 µM),Spheroid Diameter Day 0 ([1]; 100 µM group),Reduction of spheroid diameter ([1]; 100 µM),Spheroid Diameter Day 9 ([1]; 100 µM),IC50 (HaCaT cell line),"Selectivity, cancer vs healthy cell line (HaCaT cell line)",Spheroid state at the end of the 9 days ([1]; 100 µM),"Reduction in spheroid size ([1]; 10 µM, after 9 days of treatment)"
"COc1ccccc1/C=N/NC(=O)c1cc(-c2ccccc2)c(-c2ccccc2)s1 [7d, N’-[(E)-(2-methoxyphenyl)methylidene]-4,5-diphenylthiophene-2-carbohydrazide]",9.09 ± 1.04 µM,–,263 °C,1127.5 ± 36.1,4911.0 ± 117.4,1211.0 ± 17.9,6312.5 ± 24.8,–,1297.5 ± 55.1,1708.0 ± 87.1,974.0 ± 32.2,55%,445.7 ± 64.1,> 100 µM,showed selectivity,–,–
"O=C(N/N=C/c1ccccc1O)c1cc(-c2ccccc2)c(-c2ccccc2)s1 [7a, N’-[(E)-(2-hydroxyphenyl)methylidene]-4,5-diphenylthiophene-2-carbohydrazide]",7.51 ± 0.08 µM,–,238 °C,1156.5 ± 14.2,5050.5 ± 36.9,1186.5 ± 91.9,1755.0 ± 58.9,–,1176.0 ± 31.1,636.0 ± 12.7,1183.0 ± 36.1,65%,432.0 ± 17.4,0.88 ± 0.06 µM,cytotoxic effects on healthy cell line too,–,46%
"O=C(N/N=C/c1ccc(O)cc1)c1cc(-c2ccccc2)c(-c2ccccc2)s1 [7c, N’-[(E)-(4-hydroxyphenyl)methylidene]-4,5-diphenylthiophene-2-carbohydrazide]",42.8 ± 3.59 µM,> 100 µM,256 °C,1118.0 ± 31.1,5415.0 ± 12.7,1168.0 ± 52.7,6174.0 ± 106.1,–,989.5 ± 54.1,3729.5 ± 12.8,940.5 ± 33.9,–,2207.0 ± 47.1,–,–,–,–

# Further lines, with some results ahead:
IC50 (MIA PaCa-2 cell line),IC50 (COX-1),melting point,SMILES,Spheroid Diameter Day 0 ([1]; 0.1 µM group),Spheroid Diameter Day 9 ([1]; 0.1 µM),Spheroid Diameter Day 0 ([1]; 1 µM group),Spheroid Diameter Day 9 ([1]; 1 µM),Spheroid state at the end of the 9 days ([1]; 10–100 µM),Spheroid Diameter Day 0 ([1]; 10 µM group),Spheroid Diameter Day 9 ([1]; 10 µM),Spheroid Diameter Day 0 ([1]; 100 µM group),Reduction of spheroid diameter ([1]; 100 µM),Spheroid Diameter Day 9 ([1]; 100 µM),IC50 (HaCaT cell line),"Selectivity, cancer vs healthy cell line (HaCaT cell line)",Spheroid state at the end of the 9 days ([1]; 100 µM),"Reduction in spheroid size ([1]; 10 µM, after 9 days of treatment)"
> 100 µM,> 100 µM,234 °C,"COc1cc(/C=N/NC(=O)c2cc(-c3ccccc3)c(-c3ccccc3)s2)ccc1O [7e, N’-[(E)-(3-methoxy-4-hydroxyphenyl)methylidene]-4,5-diphenylthiophene-2-carbohydrazide]",1181.5 ± 33.2,5607.5 ± 44.55,1153.0 ± 73.5,6396.0 ± 16.1,disintegrated,–,–,–,–,–,–,–,–,–
4.86 ± 0.19 µM,> 100 µM,249 °C,"COc1ccc(/C=N/NC(=O)c2cc(-c3ccccc3)c(-c3ccccc3)s2)cc1O [7f, N’-[(E)-(3-hydroxy-4-methoxyphenyl)methylidene]-4,5-diphenylthiophene-2-carbohydrazide]",1110.0 ± 113.1,5823.0 ± 39.8,1108.0 ± 17.6,4336.0 ± 48.1,–,1215.0 ± 12.7,2806.0 ± 31.5,–,–,–,0.67 ± 0.13 µM,cytotoxic effects on healthy cell line too,disintegrated,–

# Reference: paper PMC10223062, “Discovery of Novel Thiophene/Hydrazones: In Vitro and In Silico Studies against Pancreatic Cancer” (Pharmaceutics, 2023)
